Here are results for seven compounds from patent EP2345639A1, “Cyclic hydroxylamine derivatives, their preparation and use as antioxidants” (ABIOGEN PHARMA S.p.A., priority 2009, dated 2011).

Series [1] can be described thus: Acid dissociation constants (pKa) by titration. Format: physicochemical. The conditions noted are these: pH at semi-neutralization point of titration with 0.1 N NaOH or HCl. As to the method: The following equipment was used during the implementation of all the examples: • for melting point determination a Buchi B-540 instrument was used; • the pKa is the pH at the semi-neutralization point of titration using a Mettler Toledo DL-50 instrument with a 0.1 N NaOH or HC! solution; • the ^1H-NMR spectra were recorded at 300 MHz and the ^13C-NMR spectra were recorded at 75 MHz using a Varian Unity 300 instrument; • spectrophotometric measurements were carried out using a Lambda Perkin Elmer 15 UV/Vis spectrophotometer for the DPPH assay and a Wallac Victor 1420 multilabel counter spectrophotometer.

Series [2] in a line: TEAC method (Trolox Equivalent Antioxidant Capacity Assay). Format: biochemical. Conditions: ratio of gradient to gradient of Trolox; 650 nm, 37 °C, about 90 minutes. The text has this: This assay is used to measure the total antioxidant activity of pure substances, biological fluids and plant compounds and is based on the reaction of antioxidants with the cation radical ABTS·^+ (2,2'-azinobis(3-ethylbenzothiazolin-6-sulphonate)). This cation radical is metastable and has to be generated just before the experiment by reacting ABTS with hydrogen peroxide in the presence of HRP. This radical can be reduced, with consequent loss of absorbance, by an antioxidant whose scavenging capacity can be measured spectrophotometrically at 650 nm. The test is carried out at 37 °C and the results are obtained from a comparison with Trolox (a synthetic antioxidant and hydrophilic analogue of vitamin E).
The ABTS solution S1 was prepared as follows: • 20 mg of ABTS were added to 50 mM of citric acid buffer (40 ml) at pH=4.5 and to the resulting solution there was added an aqueous solution of HRP (4.4 mg, 400 µl) and an aqueous solution of H2O2 (10 µl of a 30% solution diluted with 16.3 ml of water).
For each of the compounds (1)-(11), as synthesized above, there was prepared a 600 µM solution in water, methanol or DMSO according to its solubility, as well as a Trolox solution as reference.
Each solution was diluted to produce 6 solutions each at a concentration between 25 µM and 300 µM. From each of the diluted and divided solutions, there were withdrawn 20 µl to which 200 µl of solution S1 were then added.
The decrease in absorbance of each solution thus obtained was monitored at 650 nm until a stable value was reached (about 90 minutes).
For each set of 6 solutions and for the reference trolox solution, the absorption was given in graph form as a function of the amount of compound (nmol) in the solution. The gradient of the straight line obtained by linear interpolation was determined according to the least squares method. The TEAC value of each compound of the invention is given in the table below and is expressed as the ratio between the gradient of the resulting straight line and the gradient of the reference (trolox) straight line.

Series [3] relates to doxorubicin-induced cerebral oxidative stress in mice. The series can be described thus: In vivo assay of cerebral oxidative stress induced in mice by doxorubicin (model and oxidized animals). Conditions: % incidence of D relative to V. As to the method: The assay was carried out on compounds (1)-(5) and (7)-(11) and on edaravone (E) as comparative compound.
(§1) 10 mice were used for each treatment group. For each compound 50 mg/kg were administered intraperitoneally (IP) for three consecutive days (day 0, 1 and 2); half the animals (5) also received IP 16.7 mg/kg of doxorubicin immediately after the first treatment (day 0). On the day after the last administration (day 3) the animals were killed by neck dislocation and the brains were removed, weighed and frozen in liquid nitrogen.
(§2) For the analyses of oxidative stress, 100 mg/ml of brain homogenate was prepared in HEB^(*) buffer (pH 7.4 EDTA/HEPES^(**)) containing a mixture of enzyme inhibitors (Leupeptin, Pepstatin, Aprotinin, BHA).
(§3) The evaluation parameters were: • BrW/BWi: ratio between final brain weight and initial body weight (day 0); • Prot. Hmg: total proteins in the homogenate (BCA method, i.e. bicinchoninic acid); • Prot. Ox: oxidized proteins in the Hmg by means of a colorimetric method using dinitrophenylhydrazone (DNPH); • GSH: reduced glutathione in the supernatant (sn) of the Hmg, obtained after precipitation with metaphosphoric acid (MPA), by means of a colorimetric method using dithiodinitrobenzene (DTNB); • CAT: catalase in the Hmg by a colorimetric method using potassium dichromate; • SOD: superoxide dismutase by a colorimetric method using SOD Reagent (xanthine, EDTA, nitroblue tetrazole, Na2CO3, BSA, i.e. bovine serum albumin); • GST: glutathione S-transferase in the supernatant by a colorimetric method using chlorodinitrobenzene (CDNB) and GSH; and • GPx: glutathione peroxidase in the supernatant after addition of GSH and t-BuOOH, heating and precipitation with MPA; followed by GSH method with DTNB. The assay was performed on the compounds (1)-(5) and (7)-(11) and on edaravone (E), as comparative compound.
The mean effect (n=5 experiments) of doxorubicin (D), i.e. "oxidized" animal, relative to the vehicle (V), the vehicle representing the healthy animal.
All the parameters, with the exclusion of Brain/BWi and Prot. Hmg, were normalized for total Hmg proteins. The D value standard deviations and the % incidence relative to V are given in italics.
The effect of the tested compounds on the "oxidized" animals was given as % inhibition relative to the percentage change due to doxorubicin alone. The effect of the compounds on the oxidized animals can be expressed both as a function of the values of the vehicle (healthy, vehicle only) and as a function of the value of its own (healthy, compound only): • Vehicle: percentage [(Compound+D)/V]x100/[(V+D)/V]x100 • Its own: percentage [(Compound+D)/Compound]x100/[(V+D)/V]x100
Again in this case, the mean % effect relative to doxorubicin alone could be given for all the parameters simultaneously, as an approximate index of effectiveness on the cerebral oxidative state of the animal.

Another series concerns healthy animals. Put plainly: Effect of the compounds on healthy animals (same in vivo assay, cerebral oxidative parameters). More on the design: species or system mice. Conditions: healthy mice; for Average % variation with respect to the vehicle: 50 mg/kg IP for three consecutive days, mean over all parameters, D = doxorubicin alone; for CAT/pr / GPX/pr / GSH/pr / GST/pr / Prot. Hmg / Prot. Ox/pr / SOD/pr / Brain/BWi: 50 mg/kg IP x3 days, percentage change relative to the vehicle. As to the method: as §1, §2, §3
The mean % effect, on all the parameters simultaneously, of the triple treatment in healthy animal, as mean percentage change relative to the vehicle. This value is useful as an approximate safety index of the oxidative state of the brain, i.e. the capacity of the compounds of the invention not to alter cerebral homeostasis in healthy animals.

Series [4] in a line: Brain-to-plasma concentration ratio in mice. The series is classed as in vivo, Female CD-1 mice. The conditions noted are these: female, CD-1, mouse, ip, 25 mg/kg intraperitoneal, area under the curve of brain and plasma concentrations 0 to 60 minutes, read-out: B/P ratio.
Description: The ability of the compounds of the invention to penetrate the brain was investigated by measuring their brain/plasma (B/P) ratio in mice following intraperitoneal administration.
Female CD-1 mice were used (n=3 for each time period) and received the compounds of the invention by intraperitoneal administration, in 25 mg/kg doses in a 0.5% NaHCO3 buffer (pH 8.3). At predefined intervals following said administration, i.e. 5, 15, 30 and 60 minutes, the mice were killed and both plasma and total brain tissue were collected.
Specifically, after anaesthesia with ether, the animals were bled by blood withdrawal from the abdominal aorta then immediately decapitated. The blood samples were collected into plasma separator tubes containing Li-Heparin as anticoagulant and centrifuged. The resulting plasma was then stored at -20 °C. The brain was rapidly removed from the cranium and weighed, subsequently frozen and stored at -20 °C before treatment by homogenization and HPLC analysis.
The plasma was thawed and mixed with an equal volume of the extraction solution.
1 ml of solution was then extracted by adding 20 µl of 70% HClO4, then centrifuged at 15,500g for 5 minutes and injected into the HPLC.
Each brain was thawed and homogenized with the extraction solution to provide a final composition of 4 ml/1g of tissue by means of an Ultra-Turrax blender and sonicated for 5 minutes. After centrifugation of the homogenate at 15,500g for 5 minutes, the resulting solution was treated with HClO4, as indicated for the plasma. Specific chromatographic conditions had been developed for each analyte, the calibration curve being constructed for plasma and brain homogenate.
For series [5], the system named is C6 cells (rat glioma) and BAEC cells (bovine aortic endothelial). Put plainly: In vitro inhibition of CHP-induced oxidative stress (DCF fluorescence). The conditions noted are these: 500 µM CHP, 4, 20, 100 and 500 µM compound, 30 minutes; depending on the concentrations and cell line. Format: cell-based. As to the method: The method used was essentially the one reported by Rüweler M. et al. ("Inhibition of peroxide-induced radical generation by plant polyphenols in C6 astroglioma cells" (2008) Toxicol in vitro 22, 1377-81), with a few minor modifications.
The cells were seeded in phenol-red free DMEM (Sigma Aldrich) into 96-well plates with 5% FBS and 20 mM HEPES at a density of 40,000 cells/well. After 48 hours, the medium was substituted by HBSS (Hanks' Balanced Salt Solution, Sigma) containing 10 µM of dihydro-2',7'-dichlorofluorescein diacetate (H2DCF-DA, Sigma Aldrich) and incubated in darkness for 30 minutes at 37 °C, in order to load the cells with fluorescent dye. H2DCF-DA was hydrolyzed enzymatically by the intracellular esterases to form non-fluorescent H2DCF, which was then rapidly oxidized to form 2',7'-dichlorofluorescein (DCF) being highly fluorescent in the presence of reactive species (RS). The intensity of DCF fluorescence is directly proportional to the amount of RS formed.
After carrying out two washes, the cells were exposed to 500 µM of CHP and various concentrations (4, 20, 100 and 500 µM) of the compounds of the invention for 30 minutes at 37 °C. Fluorescence was then measured, after cell washing, by a microplate reader at an excitation wavelength of 485 nm and an emission wavelength of 535 nm.
Six wells per plate per concentration of test composition (compound + CHP) and per control (HBSS without CHP) were measured and 12 wells were used as reference for CHP-induced stress. In addition, each 96-well plate contained 6 wells that received the highest concentration of the tested compounds without CHP, to investigate whether the compounds of the invention alone were able to induce cellular radical formation.
When using this assay, it should be borne in mind that DCF fluorescence is a generalized indicator of oxidative stress rather than of any particular reactive species, i.e. it is not a direct assay for H2O2 or other reactive species (Halliwell B, Whiteman M. (2004) "Measuring reactive species and oxidative damage in vivo and in cell culture: how should you do it and what do the results mean?" Br. J. Pharmacol. 142 231-255). Therefore, when an increase in DCF fluorescence induced by exposure of cells to CHP was measured, as was carried out in these assays, it was not possible to deduce which reactive species was responsible. Inhibition of CHP-induced fluorescence was evaluated by means of different concentrations of the compounds of the invention and comparative compounds such as Trolox and edaravone.

Each structure is given as a SMILES string.

In series [1], `O=C1CCCC(=O)C1C1COCCN1O` (centres unmarked) [(6), 2-(4-hydroxymorpholin-3-yl)-cyclohexane-1,3-dione] yielded a pKa1 of 3.00 and a pKa2 of 6.39. In addition, the TEAC in series [2] is recorded as 1.1.
With `COc1cccc2c1C(=O)c1c(O)c3c(c(O)c1C2=O)C[C@@](O)(C(=O)CO)C[C@@H]3O[C@H]1C[C@H](N)[C@H](O)[C@H](C)O1` [doxorubicin, reference compound], in series [3], the “%D Brain/BWi” value was determined as 93.1%, the “%D CAT” value stood at 86.8%, the “%D GPX” value is reported as 90.1% and the “%D GSH” value was found to be 87.5%. In series [3], the “%D GST” value was 90.9%, the “%D Prot. Hmg” value is 108.3%, the “%D Prot. Ox” value was found to be 117.2% and the “%D SOD” value came to 85.7%. In the series with healthy animals, the “Average % variation with respect to the vehicle” value (“Average % variation” below) was -11.4%, the CAT/pr was -13.2%, the GPX/pr was -9.9% and the GSH/pr is listed as -12.5%. In addition, in the series on healthy animals, the GST/pr is -9.1%, the “Prot. Hmg” value was 8.3%, the “Prot. Ox/pr” value turned out to be 17.2% and the SOD/pr is reported as -14.3%. In addition, the Brain/BWi in the series with healthy animals (50 mg/kg) came to 6.9%. In addition, in the series on healthy animals (listed as D, 50 mg/kg), the Brain/BWi was -6.9%.
In the case of `CC1(C)CCN(O)C(C2C(=O)CC(c3ccccc3)CC2=O)C1` (centres unmarked) [(2), 2-(1-hydroxy-4,4-dimethylpiperidin-2-yl)-5-phenylcyclohexane-1,3-dione], in series [1], the pKa1 is recorded as 3.21 and the pKa2 was found to be 6.85. Besides, the TEAC in series [2] came out at 0.6. Further, in the series with healthy animals (50 mg/kg), the “Average % variation” value is on record as “did not significantly alter the parameters”. In addition, in the series with healthy animals (listed as V+(2), 50 mg/kg), the “Average % variation” value is 3.6%. Further, in the series with healthy animals, the Brain/BWi is 7.6%, the CAT/pr was -2.9%, the GPX/pr was 6.6% and the GSH/pr was 6.1%. In the series on healthy animals, the GST/pr is given as 5.8%, the “Prot. Hmg” value was -2.2%, the “Prot. Ox/pr” value was -3.7% and the SOD/pr is -0.2%. In series [4], the Kp is more than 0.1.
For `Cc1c(C)c2c(c(C)c1O)CCC(C)(C(=O)O)O2` (centres unmarked) [Trolox, reference compound], the “Inhibition of CHP-induced fluorescence” value in series [5] is recorded as 10-50%.
In the case of `O=C1O[C@H]([C@@H](O)CO)C(O)=C1O` [vitamin C, reference compound], the TEAC in series [2] was determined as 0.9.
In series [1], `Cc1cc(O)c(C2COCCN2O)c(=O)o1` (centres unmarked) [(9), 4-hydroxy-3-(4-hydroxymorpholin-3-yl)-6-methyl-2H-pyran-2-one] yielded a pKa1 of 2.85 and a pKa2 of 5.71. In series [2], the TEAC came to 1.2. The “Average % variation” value in the series on healthy animals is -9.9%.
In the case of `CC1(C)CC(=O)C(C2CC(C)(C)CCN2O)C(=O)C1` (centres unmarked) [(1), 2-(1-hydroxy-4,4-dimethylpiperidin-2-yl)-5,5-dimethylcyclohexane-1,3-dione], in series [1], the pKa1 was 3.35 and the pKa2 is recorded as 6.83. Moreover, the TEAC in series [2] amounted to 1.0. In the series with healthy animals, the “Average % variation” value is listed as -7.0%. Moreover, the Kp in series [4] was more than 0.1. In series [5], the “Inhibition of CHP-induced fluorescence” value is on record as “effective”.
